pIC50: −log10 of the molar value. The star is where a group is joined. AMC = Cc1cc(=O)oc2cc(N*)ccc12; Cbz = O=C(OCc1ccccc1)*
How the values were obtained:
pro-heparanase (H60) [1] = target: T1, pro-heparanase (H60) (Homo sapiens, UniProt Q9Y251, K307R); assay: Pro-heparanase activation in a cell-based assay (293 cells, DMB assay)
T1 sequence (Q9Y251 36-543 K307R): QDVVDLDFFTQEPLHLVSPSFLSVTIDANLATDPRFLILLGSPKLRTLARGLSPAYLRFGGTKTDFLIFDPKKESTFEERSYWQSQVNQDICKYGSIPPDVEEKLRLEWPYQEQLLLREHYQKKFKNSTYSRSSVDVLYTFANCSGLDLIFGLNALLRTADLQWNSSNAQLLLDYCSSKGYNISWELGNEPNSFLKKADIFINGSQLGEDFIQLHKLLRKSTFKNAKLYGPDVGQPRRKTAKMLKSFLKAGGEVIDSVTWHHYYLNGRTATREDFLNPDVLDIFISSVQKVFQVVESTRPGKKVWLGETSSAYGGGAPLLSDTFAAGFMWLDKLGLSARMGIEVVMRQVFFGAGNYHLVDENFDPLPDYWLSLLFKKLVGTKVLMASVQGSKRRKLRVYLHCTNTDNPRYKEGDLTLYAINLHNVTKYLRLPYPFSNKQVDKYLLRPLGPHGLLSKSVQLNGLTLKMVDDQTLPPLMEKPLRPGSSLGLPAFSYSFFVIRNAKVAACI

[2] = Heparin binding of compounds (heparin sepharose CL-6B beads); settings: compound at 5 uM
Experimental: Heparin binding—5 μM of the selected compound was prepared in a solution of PBS pH 7.2 with 0.05% Tween and 5% DMSO. […] Excess water was discarded by filtration using a Multiscreen vacuum manifold (Millipore, Cat No. MAVM 096 00). 200 μl of each compound tested was transferred to three wells of the filter plate—one empty well, one with sepharose CL-6B and one with heparin sepharose CL-6B. Plates were rotated for 2 hrs at 37° C. followed by filtration to a new 96 well clear plate, using a Multiscreen vacuum manifold. The absorbance spectrum of the filtrate in each well was determined using a VERSAmax plate reader (Molecular devices). Percent of heparin binding was calculated from the binding to heparin sepharose CL-6B as compared to the binding of the compound to the control sepharose CL-6B beads.

[3] = target: T2, pro-heparanase transiently expressed in 293 cells (Homo sapiens, UniProt Q9Y251, K307R); assay: Pro-heparanase processing in transiently transfected 293 cells (Western blot); type: cell-based
T2 sequence (Q9Y251 36-543 K307R): T1 sequence (Q9Y251 36-543 K307R)
Experimental: (§1) Western blot analysis—Western blot analysis was performed using rabbit anti-heparanase polyclonal antibodies as described in U.S. Pat. Nos. 6,177,545; 6,531,129; and 6,562,950.
Transient transfections—293 cells (200,000) were plated onto a 6 well tissue culture plate. 24 hrs later, the cells were transfected with 1 μg pSI (Promega) hpa plasmid (U.S. Pat. No. 6,475,763) in 3 μl Fugene reagent that was pre-incubated for 15 min in 100 μl medium without serum. Cells were treated with inhibitors 4 and 17 hrs following transfection.

β-FGF = target: T3, β-FGF (Homo sapiens, UniProt P09038); assay: Elisa assay for binding of β-FGF to heparin; settings: inhibition of β-FGF binding to heparin
T3 construct: purchased Sigma F0291
T3 sequence (P09038 143-288): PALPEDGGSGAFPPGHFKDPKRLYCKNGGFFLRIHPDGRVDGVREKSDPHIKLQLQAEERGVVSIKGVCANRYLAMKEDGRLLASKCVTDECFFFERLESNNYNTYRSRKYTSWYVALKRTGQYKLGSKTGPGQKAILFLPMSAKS
Experimental: Elisa assay for determination of binding of β-FGF to heparin—96 well microplates were coated overnight with Heparin-albumin (Lizard) and blocked with 1% BSA in PBS with 0.05% Tween and 0.01% thimerosal for 2 hrs. β-FGF was added to the plates at a concentration of 0.8 ng/ml and incubated for 45 min at 23-25° C. The amount of β-FGF bound to heparin was detected using anti-FGF monoclonal antibody (Sigma Cat. # F6162) at a concentration of 2.5 ng/ml and secondary antibodies Sheep anti-mouse IgG linked to horseradish peroxidase (1:3000). TMB (Pierce Cat. #34021) was used as a substrate for peroxidase.
(§2) The plates were read at 450 nm with a reference wavelength of 630 nm using a VERSAmax plate reader. […] Percent inhibition was calculated as compared with the control reactions pre-incubated with 1% DMSO only.

VEGF = target: T4, VEGF (Homo sapiens, UniProt P15692); assay: Elisa assay for binding of VEGF to heparin; settings: inhibition of VEGF binding to heparin
T4 sequence (P15692 27-191 isoform P15692-4): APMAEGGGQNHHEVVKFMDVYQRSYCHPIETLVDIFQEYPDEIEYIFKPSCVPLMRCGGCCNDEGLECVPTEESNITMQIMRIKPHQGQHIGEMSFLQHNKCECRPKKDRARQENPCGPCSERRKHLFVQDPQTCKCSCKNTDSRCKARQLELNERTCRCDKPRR
Experimental: Elisa assay for determination of binding of VEGF to heparin—96 well microplates were coated overnight with Heparin-albumin (Lizard) and blocked with 1% BSA in PBS with 0.05% Tween and 0.01% thimerosal for 2 hrs. VEGF was added to the plates at a concentration of 2 ng/ml and incubated for 45 min. at 23-25° C. The amount of VEGF bound to heparin was detected using anti-VEGF monoclonal antibody (Sigma Cat. # V4758) at a concentration of 0.26 μg/ml and secondary antibodies Sheep anti-mouse IgG linked to horseradish peroxidase (1:2000). TMB (Pierce Cat. #34021) was used as a substrate for peroxidase.
as §2

antithrombin = antithrombin (Homo sapiens, UniProt P01008); assay: Elisa assay for binding of antithrombin to heparin; settings: inhibition of antithrombin binding to heparin; NI = no inhibition; read-out: IC50 ATIII
Chain of antithrombin (P01008 33-464): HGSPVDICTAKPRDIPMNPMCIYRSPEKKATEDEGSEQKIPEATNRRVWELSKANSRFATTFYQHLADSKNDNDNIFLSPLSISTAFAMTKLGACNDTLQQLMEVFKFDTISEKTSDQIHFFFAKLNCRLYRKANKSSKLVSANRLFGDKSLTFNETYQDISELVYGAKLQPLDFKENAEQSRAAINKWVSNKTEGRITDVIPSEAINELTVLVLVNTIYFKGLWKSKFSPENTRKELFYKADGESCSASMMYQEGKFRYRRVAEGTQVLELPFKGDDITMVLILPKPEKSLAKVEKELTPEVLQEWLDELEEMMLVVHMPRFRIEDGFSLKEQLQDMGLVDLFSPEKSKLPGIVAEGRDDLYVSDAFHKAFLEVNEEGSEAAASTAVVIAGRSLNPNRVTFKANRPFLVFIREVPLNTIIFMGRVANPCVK
Experimental: Elisa assay for determination of binding of antithrombin to heparin—96 well microplates were coated overnight with Heparin-albumin (Lizard) and blocked with I % BSA in PBS with 0.05% Tween and 0.01% thimerosal for 2 hrs. […] was added to the plates at a concentration of 0.5 μg/ml and incubated overnight at 4° C. The amount of antithrombin bound to heparin was detected using an anti-antithrombin monoclonal antibody (Sigma Cat. # A5816) diluted to 1:200, and secondary antibodies (anti-mouse anti-Fc? conjugated to horseradish peroxidase, Jackson cat. # 115-035-008, 1:100). TMB (Pierce Cat. #34021) was used as a substrate for peroxidase.
The plates were read at 450 nm with a reference wavelength of 630 nm using a VERSAmax plate reader. […] Percent inhibition was calculated as compared to the control reactions pre-incubated with 1% DMSO only.

heparanase (H53) = target: T5, heparanase (H53) (Homo sapiens, UniProt Q9Y251, K307R); assay: Heparanase activity inhibition (H53), DMB assay; type: biochemical; settings: heparanase activity inhibition (H53); NI = no inhibition
T5 sequence (Q9Y251 158-543 K307R limits assumed): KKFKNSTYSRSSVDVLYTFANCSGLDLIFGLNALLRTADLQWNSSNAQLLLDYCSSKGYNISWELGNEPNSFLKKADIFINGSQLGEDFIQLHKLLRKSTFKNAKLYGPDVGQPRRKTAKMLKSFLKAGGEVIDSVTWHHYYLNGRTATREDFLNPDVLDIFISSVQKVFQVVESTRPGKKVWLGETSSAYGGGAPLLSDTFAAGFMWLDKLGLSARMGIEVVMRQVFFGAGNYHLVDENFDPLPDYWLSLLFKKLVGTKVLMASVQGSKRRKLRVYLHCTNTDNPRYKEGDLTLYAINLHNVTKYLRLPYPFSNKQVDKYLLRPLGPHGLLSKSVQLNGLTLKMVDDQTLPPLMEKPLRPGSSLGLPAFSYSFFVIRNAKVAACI
T5 sequence (Q9Y251 36-109 limits assumed): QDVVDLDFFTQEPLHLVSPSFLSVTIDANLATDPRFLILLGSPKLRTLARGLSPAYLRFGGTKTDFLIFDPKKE
Experimental: At the end of the incubation, the cells were lysed by three consecutive cycles of freezing and thawing in a −80° C. Freezer and a 37° C. shaker. Formation of active heparanase was detected by determination of heparanase activity in DMB assay as described in patent application U.S. Pat. No. 6,190,875B.

pro-heparanase (H60) [4] = target: T1, pro-heparanase (H60); assay: Processing and activation of pro-heparanase in vitro with cathepsin B and D in the presence of heparin (Western blot, DMB assay); type: biochemical; settings: cathepsin B and/or cathepsin D, heparin-sepharose
Experimental: as §1
Following a 17 hours incubation at room temperature, reaction products were filtered to a new plate and quantified using di-methyl-methylene-blue, as described in U.S. Pat. No. 6,190,875.
Assay mixtures contained heparin (Sigma, H3393) or heparinomimetic molecules ethane-1,2-disulfonic acid (Sigma, E2269) and heparin disaccharide IVA (Sigma, H0895) for western blot analysis or heparin sepharose beads for activation assays, in 200 mM acetate buffer, pH 5.5, 4 mM EDTA and 8 mM DTT, with either Cathepsin B, Cathepsin D or both. Following a 17 hours of incubation at room temperature, reaction products were examined by western blot analysis or filtered to a new plate and quantified using di-methyl-methylene-blue, as described in U.S. Pat. No. 6,190,875 for activation assay.

pro-heparanase (H60) [5] = assay: Processing and activation of pro-heparanase in vitro with cathepsin G; type: biochemical, human; settings: in the presence of heparin
Experimental: The assays were performed in assay mixtures containing heparin for western blot analysis or heparin sepharose beads for activation assays, in PBS, 365 mM NaCl, with 1 μ/ml cathepsin G (Sigma, C4428). Following a 17 hours incubation at room temperature, reaction products were examined in western blot analysis or filtered to a new plate and quantified using di-methyl-methylene-blue, as described in U.S. Pat. No. 6,190,875 for activation assay.

[6] = target: T6, Elastase, human neutrophil (Homo sapiens, UniProt P08246); assay: Determination of elastase activity; type: biochemical; settings: Table 13
T6 construct: Elastase, human neutrophil (Calbiochem cat.# 324681); purchased Calbiochem 324681; host or cells: human neutrophils
T6 sequence (P08246 30-267): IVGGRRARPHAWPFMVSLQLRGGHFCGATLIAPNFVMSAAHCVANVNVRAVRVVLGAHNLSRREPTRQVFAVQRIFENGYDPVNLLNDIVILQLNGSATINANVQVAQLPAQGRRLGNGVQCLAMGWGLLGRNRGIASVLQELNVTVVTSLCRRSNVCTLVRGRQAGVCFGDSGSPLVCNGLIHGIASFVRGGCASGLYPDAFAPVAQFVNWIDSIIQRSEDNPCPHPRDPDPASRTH

cathepsin G = target: T7, cathepsin G (Homo sapiens, UniProt P08311); assay: Cathepsin G activity inhibition; type: biochemical; settings: data not shown
T7 sequence (P08311 21-244): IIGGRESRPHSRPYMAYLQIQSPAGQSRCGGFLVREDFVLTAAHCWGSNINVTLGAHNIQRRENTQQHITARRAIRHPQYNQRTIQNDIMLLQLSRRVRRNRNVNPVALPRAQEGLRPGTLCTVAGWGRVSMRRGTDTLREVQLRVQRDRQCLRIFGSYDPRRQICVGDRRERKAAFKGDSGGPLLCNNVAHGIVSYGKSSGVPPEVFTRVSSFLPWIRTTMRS

293 cell extract = assay: Cleavage of Z-Pro-Lys-Lys-Glu-AMC (Peptide 1) by 293 cell extract and its inhibition by protease inhibitors; type: biochemical, human; settings: different pHs, pH range 4.5-7.5
Experimental: Following a 20 minutes incubation at 37° C., fluorescence released due to proteolytic activity was determined using a BMG POLARstar™ Galaxy fluorometer: excitation at 390 nm and emission at 460 nm.

Cathepsin B = Cathepsin B (Homo sapiens, UniProt P07858); assay: Proteolytic activity assay: cleavage of fluorogenic peptides by cathepsin B; type: biochemical; settings: substrate cleaved by Cathepsin B
Experimental: (§3) Assay was done in a reaction mixture containing 200 mM acetate buffer, pH 5.5, 4 mM EDTA and 8 mM DTT. Following a 20 minutes incubation at 37° C., fluorescence released due to proteolytic activity was determined using a BMG POLARstar™ Galaxy fluorometer: excitation at 390 nm and emission at 460 nm.

Cathepsin L = target: T8, Cathepsin L (Homo sapiens, UniProt P07711); assay: Proteolytic activity assay: cleavage of fluorogenic peptides by cathepsin L; type: biochemical; settings: substrate cleaved by Cathepsin L
T8 construct: purchased Calbiochem
T8 sequence (P07711 114-333, species assumed): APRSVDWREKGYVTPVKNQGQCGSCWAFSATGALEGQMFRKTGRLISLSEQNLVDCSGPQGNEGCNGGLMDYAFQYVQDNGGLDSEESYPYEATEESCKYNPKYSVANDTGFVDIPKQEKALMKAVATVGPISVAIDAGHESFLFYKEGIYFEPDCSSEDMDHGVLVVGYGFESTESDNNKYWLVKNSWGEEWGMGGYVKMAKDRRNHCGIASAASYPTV
Experimental: as §3

Cc1cc(N(C)C)cc2[s+]c3cc(N(C)C)cc(C)c3nc12 [Compound 112]
pIC50 (pro-heparanase (H60) [1]; inhibition of pro-heparanase activation, Table 11, heparin-binding compounds): 6.24
Binding to heparin (5 uM) [2]: 70%
pro-heparanase expression [3]: did not affect pro-heparanase expression
pro-heparanase processing [3]: completely inhibited pro-heparanase processing
pIC50 (β-FGF): 5.89
pIC50 (VEGF): 5.62
pIC50 (antithrombin): 4.74
pIC50 (heparanase (H53)): 4.70

O=C(Nc1ccc(Oc2cccc(Oc3ccc(NC(=O)c4ccncc4)cc3)c2)cc1)c1ccncc1 [Compound 128]
activation of pro-heparanase in vitro (heparanase activity) (pro-heparanase (H60) [4]): not by cathepsin B
inhibition of pro-heparanase activation in-vitro by cathepsin G (pro-heparanase (H60) [5]): inhibit pro-heparanase activation in-vitro by cathepsin G
pIC50 (pro-heparanase (H60) [1]; inhibition of pro-heparanase (H60) activation, Table 13 serine protease inhibitors): 6.30
pIC50 [6]: 4.89
inhibition of the activity of cathepsin G (cathepsin G): inhibit the activity of cathepsin G

Z-Pro-Lys-Lys-Glu-AMC (Cbz-PKKE-{AMC}; SMILES Cc1cc(=O)oc2cc(NC(=O)[C@H](CCC(=O)O)NC(=O)[C@H](CCCCN)NC(=O)[C@H](CCCCN)NC(=O)[C@@H]3CCCN3C(=O)OCc3ccccc3)ccc12) [Peptide 1]
cleavage by 293 cell extract (293 cell extract): highest at pH 5.5-6.5
Activity (δfluorescence) (Cathepsin B): 8926
Activity (δfluorescence) (Cathepsin L): 0
